Consider one molecule from US20260232865A1, “DENDRIMER-BIOADHESIVE POLYMER HYDROGEL NANOGLUE AND USE THEREOF” (The Johns Hopkins University, priority 2016, published 2026).

Type in all cases: in vivo, rat
For assay [1], the system named is MCP-1 mRNA. The experiment in a line: Cytokine mRNA expression in corneal tissue by RT-PCR: MCP-1. How it is done: (§1) For cytokine expression analysis, the corneas (n=10, for each group) were snap frozen in liquid nitrogen and homogenized carefully into tissue powder using pre-cooled (in liquid nitrogen) porcelain mortar and pestles. The total RNA was purified with TRIzol reagent (Life Technologies, Grand Island, NY) following the manufacturer's instruction. 3 μg of total RNA was reverse-transcribed to cDNA using High-capacity cDNA Reverse Transcription System (Life Technologies) according to the manufacturer's instructions. qRT-PCR was performed with fast SYBR Green Master Mix (Life Technologies) by a StepOnePlus Real-Time PCR System (Life Technologies). Rat GAPDH was used to normalize the expression levels of target gene and calculated by the comparative cycle threshold Ct method (2^−(ΔΔCt)).

Assay [2] deals with corneal alkali burn. As to conditions: for Estimated area of NV / CCT: mean±standard deviation; for Opacity score: median (inter-quartile range); for CCT: rat alkali burn, subconjunctival gel, 1.6 mg of Dex/eye. How it is done:
All procedures involving animals conformed with the IACUC research guidelines by the Association for Research in Vision and Ophthalmology Statement for the use of Animals in Ophthalmic and Vision Research and Johns Hopkins University. A total of 57 Lewis rats (7 to 8 weeks of age) were obtained from Harlan Laboratories Inc. (Frederick, MD). All animals weighed between 150 and 200 g, and they were housed at constant temperature (20±1° C.) and humidity (50±5%). They were fed standard rat chow and had access to water ad libitum. All procedures and tests were performed under general anesthesia with intramuscular injection of ketamine 0.9% (Bio-niche Pharma, Lake Forest, IL, USA)/xylazine 0.1% (Phoenix Pharmaceuticals, St. Joseph, MO, USA) and topical proparacaine 0.5% (Sandoz, Holzkirchen, Germany). Corneal alkali burn was generated by applying 0.5N NaOH on cornea. Briefly, sample discs SS-033 0.5 cm in diameter (WESCOR, Logan, Utah, USA) were cut in to 4 quadrants. The quadrant was soaked in 0.5N NaOH for 10 seconds and then placed on central cornea for 15 s. The burn area and the conjunctival sac were immediately irrigated with 30 mL of BSS solution using an eyedrop bottle.
Corneal alkali burn was performed on rats as described in Example 7.
After alkali burn, the animals were randomized for treatment in one of the following three groups: (i) Dendrimer-Dexamethasone conjugates entrapped in injectable, dendrimer-hyaluronic acid photocrosslinked gel with a minimal amount of free dexamethasone (D-Dex group, n=10), (ii) free dexamethasone in injectable, dendrimer-hyaluronic acid photocrosslinked gel (free-dex group, n=10), and (iii) no drug, only injectable, dendrimer-hyaluronic acid photocrosslinked gel, n=10. Both D-Dex and free-Dex groups were treated with equivalent Dex basis present in both D-Dex and free Dex formulations (1.6 mg of Dex/eye). […] The free dexamethasone group received a total of 1.6 mg of free dexamethasone. […] All forms of drugs were incorporated into injectable gel formulations (it is the same gel formulation as of example 4). The gel components are premixed and loaded in to the syringe and crosslinked to form gel using UV exposure. At the time of injection the components are in the form of gel) and injected subconjunctivally using 30-gauge, 0.5 cc insulin syringes.
Animals were assessed at baseline and at the following post-exposure time points: 24 hours, 72 hours, and 7 days. A subset of the animals was also followed up to 14 days.
The central corneal thickness (CCT) and stromal structure analysis were done using anterior chamber optical coherence tomography (OCT) (Bioptigen Envisu R-class OCT, Bioptigen, NC, USA).
Changes in intraocular pressure (IOP) were measured using a handheld tonometer (Icare LAB tonometer, Icare, Finland). The settings R for rat were chosen and three individual measurements of IOP were made for each eye for accuracy.
Corneal opacity was scored by grading the degree of transparency as previously reported by Larkin D F, et al., Clin Exp Immunol., 107:381-391 (1997). The estimated area of neovascularization (NV) was assessed by estimating the radial penetration of the neovascular vessels and their extent in degrees, and by assuming a mean corneal […] of 2.5 mm, so that the maximal area of NV was no more than 2.52π mm^2 (=19.63 mm^2).

Assay [3] deals with IL-6 mRNA. The experiment in a line: Cytokine mRNA expression in corneal tissue by RT-PCR: IL-6. The conditions noted are these: POD7, normalized to healthy controls, mean±SEM. How it is done:
as §1

Read-outs that look alike come from different tables or passages of the source.

`C[C@@H]1C[C@H]2[C@@H]3CCC4=CC(=O)C=C[C@]4(C)[C@@]3(F)[C@@H](O)C[C@]2(C)[C@@]1(O)C(=O)CO` [Free-Dex, Dexamethasone]: the “MCP-1 mRNA levels significantly lower compared to the positive controls” value in assay [1] (POD7, p=0.259) is listed as “not true”. Besides, the “MCP-1 mRNA levels” value in assay [1] (POD14, corneal tissue, normalized to healthy controls, mean±SEM) is reported as 15.4±3.22. Further, the “Estimated area of NV” value in assay [2] (Baseline) is given as 0 ± 0 mm^2; in assay [2] (POD1), 0 ± 0 mm^2; in assay [2] (POD3) it was 3.32 ± 1.65 mm^2; in assay [2] (POD7), 3.8 ± 2.89 mm^2; in assay [2] (POD14) it was 43.32 ± 5.46 mm^2. Moreover, the Opacity score in assay [2] (Baseline, grade 0-4) is given as 0(0); in assay [2] (POD1, grade 0-4), 3(3); in assay [2] (POD3, grade 0-4), 3.5(1); in assay [2] (POD7, grade 0-4) it was 1(1); in assay [2] (POD14, grade 0-4), 1(2). For the same molecule, the CCT in assay [2] (Baseline) is reported as 142.86 ± 8.68 μm; in assay [2] (POD1) it was 304.95 ± 87.23 μm; in assay [2] (POD3), 357.71 ± 115.58 μm; in assay [2] (POD7), 229.57 ± 91.54 μm; in assay [2] (POD14), 226.57 ± 63.67 μm. Further, the median opacity score in assay [2] (POD3, grade 0-4) is given as 3.5. In assay [2] (POD7 as printed in text, spread not defined), the “mean area occupied by neo-vessels” value is 3.32±0.34 mm^2. The “IL-6 mRNA levels” value in assay [3] is given as 3.0±0.3.
